Assay results taken from US6750228B1, “Aromatic sulfone hydroxamic acid metalloprotease inhibitor” (priority 1997, dated 2004).
Where a name gives a salt, the structure may show the parent alone. Read-outs that look alike come from different tables or passages of the source.

Key:
Assay in all cases: biochemical
MMP-2 = molecular target: T1, MMP-2 (Homo sapiens, UniProt P08253); settings: read-out: MMP-2 IC50
T1 construct: made in house; provided by Dr. Gregory Goldberg, Washington University
T1 sequence (P08253 110-660): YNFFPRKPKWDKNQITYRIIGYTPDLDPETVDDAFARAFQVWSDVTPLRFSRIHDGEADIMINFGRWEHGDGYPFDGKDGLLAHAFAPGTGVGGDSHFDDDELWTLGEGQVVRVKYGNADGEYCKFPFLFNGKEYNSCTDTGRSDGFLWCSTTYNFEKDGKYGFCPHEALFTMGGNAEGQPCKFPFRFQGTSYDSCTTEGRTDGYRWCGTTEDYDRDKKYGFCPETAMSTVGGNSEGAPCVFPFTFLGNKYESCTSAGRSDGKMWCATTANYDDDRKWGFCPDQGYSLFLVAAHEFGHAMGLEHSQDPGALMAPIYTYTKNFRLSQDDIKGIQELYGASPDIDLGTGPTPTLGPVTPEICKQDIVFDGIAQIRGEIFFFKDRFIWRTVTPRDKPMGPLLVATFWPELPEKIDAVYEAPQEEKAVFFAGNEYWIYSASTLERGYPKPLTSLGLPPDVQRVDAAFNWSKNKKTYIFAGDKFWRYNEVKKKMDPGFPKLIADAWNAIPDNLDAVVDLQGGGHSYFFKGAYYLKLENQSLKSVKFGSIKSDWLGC
Summary of the method: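 APMA- or trypsin-activated human MMPs (MMP-1 from transfected HT-1080 cells, MMP-2 from transfected cells) preincubated with inhibitor in 1% DMSO at room temperature, then 4 μM MCA-Pro-Leu-Gly-Leu-Dpa-Ala-Arg-NH2 added in Tris/NaCl/CaCl2 buffer pH 7.5. IC50 from fluorescence reduction versus inhibitor concentration.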

MMP-1 = molecular target: T2, MMP-1 (Homo sapiens, UniProt P03956); settings: read-out: MMP-1 IC50
T2 construct: made in house; host or cells: transfected HT-1080 cells (provided by Dr. Harold Welgus, Washington University)
T2 sequence (P03956 100-469): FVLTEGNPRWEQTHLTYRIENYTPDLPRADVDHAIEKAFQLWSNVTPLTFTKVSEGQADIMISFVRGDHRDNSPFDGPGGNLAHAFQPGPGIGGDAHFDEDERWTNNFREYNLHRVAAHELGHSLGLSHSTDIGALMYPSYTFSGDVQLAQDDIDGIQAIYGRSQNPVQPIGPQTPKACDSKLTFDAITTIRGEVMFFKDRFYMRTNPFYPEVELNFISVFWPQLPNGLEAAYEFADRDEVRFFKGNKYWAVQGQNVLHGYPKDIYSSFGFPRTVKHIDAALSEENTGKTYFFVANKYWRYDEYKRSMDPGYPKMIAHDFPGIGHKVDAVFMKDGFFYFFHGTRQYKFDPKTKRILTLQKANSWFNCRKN
Summary of the method: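 APMA- or trypsin-activated enzymes were preincubated with inhibitor for 5 min at room temperature, then the fluorogenic substrate MCA-Pro-Leu-Gly-Leu-Dpa-Ala-Arg-NH2 was added to a final 4 μM.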

MMP-13 = molecular target: T3, MMP-13 (Homo sapiens, UniProt P45452); settings: read-out: MMP-13 IC50
T3 construct: made in house; host or cells: baculovirus / insect cells
Summary of the method: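 Assay buffer 100 mM Tris-HCl, 100 mM NaCl, 10 mM CaCl2, pH 7.5. Activated MMP + inhibitor, 5 min RT; then methoxycoumarin peptide substrate, 4 μM final. Readout fluorescence; IC50 calculated.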

[1] = recombinant human MMP-2, MCA peptide substrate 4 μM, pH 7.5, room temperature
[2] = recombinant human MMP-1, MCA peptide substrate 4 μM, pH 7.5, room temperature
[3] = recombinant human MMP-13, MCA peptide substrate 4 μM, pH 7.5, room temperature

| IC50 (MMP-2; [1]) [nM] | IC50 (MMP-1; [2]) [nM] | IC50 (MMP-13; [3]) [nM] | SMILES | IC50 (MMP-1) [nM] | IC50 (MMP-2) [nM] | IC50 (MMP-13) [nM] |
| --- | --- | --- | --- | --- | --- | --- |
| 350 | > 10000 | 270 | CC(=O)N1CCN(c2ccc(S(=O)(=O)C3(C(=O)NO)CCOCC3)cc2)CC1 [Example 539] | – | – | – |
| 60.7 | > 10000 | 20 | O=C(NO)C1(S(=O)(=O)c2ccc(N3CC[C@@H](OCc4ccccc4)C3)cc2)CCOCC1 [Example 530] | – | – | – |
| > 10000 | > 10000 | 7700 | O=C(NO)C1(S(=O)(=O)c2ccc(N3CCCCC3CCOCc3ccc(F)cc3)cc2)CCOCC1 (stereo not drawn) [Example 510] | – | – | – |
| 0.4 | > 10000 | 1.3 | CN(C)CCN(C)CC(=O)N1CCC(C(=O)NO)(S(=O)(=O)c2ccc(Oc3ccc(C(F)(F)F)cc3)cc2)CC1 [Example 323] | – | – | – |
| 0.2 | > 10000 | 0.8 | O=C(CCCCNCc1cccnc1)N1CCC(C(=O)NO)(S(=O)(=O)c2ccc(Oc3ccc(C(F)(F)F)cc3)cc2)CC1 [Example 333] | – | – | – |
| 4600 | > 10000 | 120 | O=C(NO)C1(S(=O)(=O)c2ccc(N3CCC(Oc4ccccc4C(F)(F)F)CC3)cc2)CCOCC1 [Example 568] | – | – | – |
| 2000 | > 10000 | 160 | O=C(NO)C1(S(=O)(=O)c2ccc(N3CCC(OCc4ccccn4)CC3)cc2)CCOCC1 [Example 578] | – | – | – |
| 78 | > 10000 | 8.8 | O=C(NO)C1(S(=O)(=O)c2ccc(N3CCC(OCc4ccccc4F)CC3)cc2)CCOCC1 [Example 576] | – | – | – |
| 25.1 | > 10000 | 3.5 | O=C(Nc1ccc(F)cc1)OC1CCN(c2ccc(S(=O)(=O)C3(C(=O)NO)CCOCC3)cc2)CC1 [Example 191] | – | – | – |
| 200 | > 10000 | 30.7 | CC1CCCN(c2ccc(S(=O)(=O)C3(C(=O)NO)CCOCC3)cc2)C1 (stereo not drawn) [Example 496] | – | – | – |
| 158 | > 10000 | 60 | O=C(NO)C1(S(=O)(=O)c2ccc(N3CCCC3)cc2)CCOCC1 [Example 81] | – | – | – |
| < 0.1 | > 10000 | 0.3 | O=C(c1ccccc1)N1CCC(C(=O)NO)(S(=O)(=O)c2ccc(Oc3ccc(OC(F)(F)F)cc3)cc2)CC1 [Example 91] | – | – | – |
| < 0.1 | 3700 | < 0.1 | O=C(NO)C1(S(=O)(=O)c2ccc(Oc3ccc(OC(F)(F)F)cc3)cc2)CCN(CCn2ccnc2)CC1 [Example 261, N-Hydroxy-1-[2-(1H-imidazol-1-yl)ethyl]-4-[[4-[4-(trifluoromethoxy)phenoxy]phenyl]sulfonyl]-4-piperidinecarboxamide, Dihydrochloride] | – | – | – |
| 15.8 | > 10000 | 4.2 | CCOc1cccc(OC2CCN(c3ccc(S(=O)(=O)C4(C(=O)NO)CCOCC4)cc3)CC2)c1 [Example 640] | – | – | – |
| 1500 | > 10000 | 120 | CCOC(=O)CN1CCN(c2ccc(S(=O)(=O)C3(C(=O)NO)CCOCC3)cc2)CC1 [Example 621] | – | – | – |
| 600 | > 10000 | 10 | Cc1cc(C)cc(OC2CCN(c3ccc(S(=O)(=O)C4(C(=O)NO)CCOCC4)cc3)CC2)c1 [Example 187] | – | – | – |
| 12 | > 10000 | 0.8 | N#Cc1ccc(OC2CCN(c3ccc(S(=O)(=O)C4(C(=O)NO)CCOCC4)cc3)CC2)cc1 [Example 469] | – | – | – |
| 3500 | > 10000 | 4900 | CC1(C)CC2CC(C)(CN2c2ccc(S(=O)(=O)C3(C(=O)NO)CCOCC3)cc2)C1 (stereo not drawn) [Example 214] | – | – | – |
| 200 | > 10000 | 4 | CCOCc1ccc(COC2CCN(c3ccc(S(=O)(=O)C4(C(=O)NO)CCOCC4)cc3)CC2)cc1 [Example 472] | – | – | – |
| 0.2 | > 10000 | 2.7 | O=C(CCCCNCCO)N1CCC(C(=O)NO)(S(=O)(=O)c2ccc(Oc3ccc(C(F)(F)F)cc3)cc2)CC1 [Example 337] | – | – | – |
| 170 | > 10000 | 4.5 | CCC(C)OCc1ccc(COC2CCN(c3ccc(S(=O)(=O)C4(C(=O)NO)CCOCC4)cc3)CC2)cc1 (stereo not drawn) [Example 556] | – | – | – |
| 45.4 | > 10000 | 5.5 | O=C(NO)C1(S(=O)(=O)c2ccc(N3CCC(Nc4ccccc4O)CC3)cc2)CCOCC1 [Example 842] | – | – | – |
| 1300 | > 10000 | 45.4 | O=C(Nc1ccc(Oc2ccccc2)cc1)OC1CCN(c2ccc(S(=O)(=O)C3(C(=O)NO)CCOCC3)cc2)CC1 [Example 519] | – | – | – |
| 0.2 | > 10000 | 0.7 | CCCN(CC(=O)N1CCC(C(=O)NO)(S(=O)(=O)c2ccc(Oc3ccc(C(F)(F)F)cc3)cc2)CC1)CC1CC1 [Example 331] | – | – | – |
| 0.3 | > 10000 | 4 | COCCN(CCCCC(=O)N1CCC(C(=O)NO)(S(=O)(=O)c2ccc(Oc3ccc(C(F)(F)F)cc3)cc2)CC1)CCOC [Example 342] | – | – | – |
| – | – | – | O=C(C1CCN(c2ccc(S(=O)(=O)C3(C(=O)NO)CCOCC3)cc2)CC1)N1CCN(c2nccc(C(F)(F)F)n2)CC1 [Example 49] | > 10000 | 6500 | 20 |

| SMILES | IC50 (MMP-2; [1]) [nM] | IC50 (MMP-1; [2]) [nM] | IC50 (MMP-13; [3]) [nM] | IC50 (MMP-1) [nM] | IC50 (MMP-2) [nM] | IC50 (MMP-13) [nM] |
| --- | --- | --- | --- | --- | --- | --- |
| O=C(NO)C1(S(=O)(=O)c2ccc(N3CCC(S(=O)(=O)c4ccccc4)CC3)cc2)CCN(C2CC2)CC1 [Example 409] | 275 | > 10000 | 22.4 | – | – | – |
| COCCN1CCN(CC(=O)N2CCC(C(=O)NO)(S(=O)(=O)c3ccc(N4CCC(C(=O)N5CC(C)CC(C)C5)CC4)cc3)CC2)CC1 (stereo not drawn) [Example 307] | > 10000 | > 10000 | 40 | – | – | – |
| CC(=N)N1CCC(C(=O)NO)(S(=O)(=O)c2ccc(Oc3ccc(OC(F)(F)F)cc3)cc2)CC1 [Example 412] | 0.2 | 6400 | 0.4 | – | – | – |
| O=C(NO)C1(S(=O)(=O)c2ccc(N3CCC(Oc4ccccc4O)CC3)cc2)CCOCC1 [Example 835] | 20 | > 10000 | 6 | – | – | – |
| O=C(NO)C1(S(=O)(=O)c2ccc(Oc3ccc(OC(F)(F)F)cc3)cc2)CCN(c2ccncc2)CC1 [Example 391] | < 0.1 | 5400 | 0.1 | – | – | – |
| CC1CC(C)CN(C(=O)C2CCN(c3ccc(S(=O)(=O)C4(C(=O)NO)CCN(C(=O)CN(CCCN(C)C)CCCN(C)C)CC4)cc3)CC2)C1 (stereo not drawn) [Example 302] | > 10000 | > 10000 | 175 | – | – | – |
| CCNCC(=O)N1CCC(C(=O)NO)(S(=O)(=O)c2ccc(N3CCC(C(=O)N4CC(C)CC(C)C4)CC3)cc2)CC1 (stereo not drawn) [Example 277] | > 10000 | > 10000 | 70 | – | – | – |
| O=C(c1cccc(OC(F)(F)F)c1)C1CCN(c2ccc(S(=O)(=O)C3(C(=O)NO)CCOCC3)cc2)CC1 [Example 725] | 210 | > 10000 | 25.1 | – | – | – |
| CCCCOC1CCN(c2ccc(S(=O)(=O)C3(C(=O)NO)CCN(C4CC4)CC3)cc2)CC1 [Example 440] | 240 | > 10000 | 26.8 | – | – | – |
| CC1CC(C)CN(C(=O)C2CCN(c3ccc(S(=O)(=O)C4(C(=O)NO)CCN(C(C)C)CC4)cc3)CC2)C1 (stereo not drawn) [Example 458] | 2100 | > 10000 | 210 | – | – | – |
| CC1CC(C)CN(C(=O)C2CCN(c3ccc(S(=O)(=O)C4(C(=O)NO)CCN(C(=O)CN5CCCCC5)CC4)cc3)CC2)C1 (stereo not drawn) [Example 296] | > 10000 | > 10000 | 50 | – | – | – |
| O=C(c1ccc2c(c1)OCCO2)C1CCN(c2ccc(S(=O)(=O)C3(C(=O)NO)CCOCC3)cc2)CC1 [Example 797] | 175 | – | 4 | > 10000 | – | – |
| CC1CC(C)CN(C(=O)C2CCN(c3ccc(S(=O)(=O)C4(C(=O)NO)CCN(C(=O)CN5CCCC5=O)CC4)cc3)CC2)C1 (stereo not drawn) [Example 314] | > 10000 | > 10000 | 65 | – | – | – |
